This is an account of results in patent US20250289814A1, “COMPOUNDS AS PARP1 INHIBITIORS” (NINGBO NEWBAY TECHNOLOGY DEVELOPMENT CO., LTD., priority 2022, published 2025).

The structures appear in SMILES notation. Like-named read-outs stand apart in the source and are kept apart here. Some results are limits rather than exact numbers.

In data set [1] the target is Recombinant full length PARP1 (Homo sapiens (Human), UniProt P09874). In words: FP assay PARP1 (fluorescence anisotropy probe displacement). Format: binding. The settings on record: 20 nM PARP1, 8 nM fluorescent probe, 4 h, room temperature. The procedure: (§1) FP experiments were carried out at room temperature using no-binding black 384-well microplates. Recombinant full length PARP1 and PARP2 proteins produced in house were diluted to 20 nM and 60 nM, respectively, with assay buffer (50 mM Tris pH 8, 0.001% Triton X100, 10 mM MgCl2, and 150 mM NaCl) and incubated for 4 h with an equivalent volume of the 8 nM fluorescent probe diluted with assay buffer. Fluorescence anisotropy of the probe when bound to the proteins was measured in the presence of test compounds or solvent control and the effect on anisotropy determined. Polarization values were read using an Envision plate reader using excitation and emission wavelengths of 590 and 630 nm, respectively. All FP values are expressed as mP units. Inhibition ratio was calculated using readout (mP) following the equation as below: […]
(§2) % inhibition values for different test compound concentrations were calculated and fitted to a four parameter logistic plot in order to determine the IC50 value using XLfit.
For orientation: Polarisation of emitted light reports the rotation of a fluorescent probe.

Data set [2] has as its target Recombinant full length PARP2 (Homo sapiens (Human), UniProt Q9UGN5). In words: FP assay PARP2 (fluorescence anisotropy probe displacement). Format: binding. The following applies: 60 nM PARP2, 8 nM fluorescent probe, 4 h, room temperature. As to the method: as §1, §2
For data set [3], the system named is DLD1-BRCA2−/− cells. Description: Cell proliferation assay in DLD1-BRCA2−/− cell lines (CellTiter-Glo, 7 days). Format: cell-based. The procedure: BRCA2 (−/−) cells cultured in RPMI 1640+10% FBS were harvested and diluted to a density of 1×10^4 cells/mL and 2×10^4 cells/mL, respectively. Cells (40 μL/well) were seeded into 384-well cell culture plates. Plates were covered and incubated at 37° C., 5% CO2 overnight prior to the addition of test compounds or vehicle. The plates were then incubated at 37° C., 5% CO2 for 7 days. On day 8, the plates were removed from incubator and equilibrated at room temperature for 15 minutes. CellTiter-Glo (40 μL, at 1:1 to culture medium) is added into each well and the plates were placed at room temperature for 30 min. Luminescence was measured using an Envision plate reader. The resultant data were analysed as follows; where LC is culture medium without cells:
% inhibition values for different test compound concentrations were calculated and fitted to a four parameter logistic plot in order to determine the IC50 value using XLfit

The nature of data set [4]: Caco2 (A-B/B-A) permeability. Format: in vitro ADME. The following applies: human; for efflux ratio at 120 min, 5 μM: Caco-2, pH 7.4, PappB-A/PappA-B, read-out: Caco2 efflux ratio (ER); for Papp A→B at 120 min, 5 μM: Caco-2, pH 7.4, apical-to-basolateral, read-out: Caco2 A-B apparent permeability (Papp); for Papp A→B at 120 min, 5 μM / Papp B→A at 120 min, 5 μM: HBSS pH 7.4, 120 min, 37° C.; for Papp B→A at 120 min, 5 μM: Caco-2, pH 7.4, basolateral-to-apical, read-out: Caco2 B-A apparent permeability (Papp). As to the method: The apical-to-basolateral (A-B) and basolateral-to-apical (B-A) transport of 5 μM test compounds in HBSS (10 mM HEPES, pH 7.4) was measured across Caco-2 cell monolayers (cells sourced from American Type Culture Collection, Manassas, Virgina). Duplicate incubations were performed at approximately 37° C. for 120 min, with functionality of the test system confirmed using 5 μM propranolol and digoxin as control compounds. Aliquots (50 μL) from both apical and basolateral wells were transferred into two fresh 96-well plates and quenched with acetonitrile solution containing analytical internal standards. Samples were vortexed mixed, centrifuged and a 100 μL aliquot of the resulting supernatant mixed with an equal volume of ultra-pure water prior to analysis by UPLC-MS/MS. The concentrations of test compound and control compounds in the incubation medium of donor and receiver compartments at the beginning and the end of the incubation period were used to calculate the apparent permeability (Papp) from A-B and B-A directions. The efflux ratio (ER) was expressed as PappB-A/PappA-B. The integrity of the cell monolayers after 2 hours incubation was confirmed using the marker reagent Lucifer yellow.

Chain of Recombinant full length PARP2 (Q9UGN5 whole entry): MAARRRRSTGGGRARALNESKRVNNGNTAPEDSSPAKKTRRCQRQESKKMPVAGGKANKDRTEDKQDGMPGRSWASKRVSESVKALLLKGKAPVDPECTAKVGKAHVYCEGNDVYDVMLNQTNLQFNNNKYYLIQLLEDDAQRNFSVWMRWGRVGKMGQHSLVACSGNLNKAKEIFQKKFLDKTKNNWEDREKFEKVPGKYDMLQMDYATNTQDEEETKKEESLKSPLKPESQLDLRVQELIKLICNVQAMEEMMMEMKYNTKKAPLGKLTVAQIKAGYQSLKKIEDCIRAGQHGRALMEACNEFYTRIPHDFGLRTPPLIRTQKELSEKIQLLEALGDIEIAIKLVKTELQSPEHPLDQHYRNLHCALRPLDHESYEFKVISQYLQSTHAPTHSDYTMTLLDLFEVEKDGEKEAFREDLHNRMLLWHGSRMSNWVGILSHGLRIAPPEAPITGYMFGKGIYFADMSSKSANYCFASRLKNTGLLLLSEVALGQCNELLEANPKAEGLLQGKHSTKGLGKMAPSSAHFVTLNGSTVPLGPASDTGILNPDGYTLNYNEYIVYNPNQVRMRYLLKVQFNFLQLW
Chain of Recombinant full length PARP1 (P09874 whole entry): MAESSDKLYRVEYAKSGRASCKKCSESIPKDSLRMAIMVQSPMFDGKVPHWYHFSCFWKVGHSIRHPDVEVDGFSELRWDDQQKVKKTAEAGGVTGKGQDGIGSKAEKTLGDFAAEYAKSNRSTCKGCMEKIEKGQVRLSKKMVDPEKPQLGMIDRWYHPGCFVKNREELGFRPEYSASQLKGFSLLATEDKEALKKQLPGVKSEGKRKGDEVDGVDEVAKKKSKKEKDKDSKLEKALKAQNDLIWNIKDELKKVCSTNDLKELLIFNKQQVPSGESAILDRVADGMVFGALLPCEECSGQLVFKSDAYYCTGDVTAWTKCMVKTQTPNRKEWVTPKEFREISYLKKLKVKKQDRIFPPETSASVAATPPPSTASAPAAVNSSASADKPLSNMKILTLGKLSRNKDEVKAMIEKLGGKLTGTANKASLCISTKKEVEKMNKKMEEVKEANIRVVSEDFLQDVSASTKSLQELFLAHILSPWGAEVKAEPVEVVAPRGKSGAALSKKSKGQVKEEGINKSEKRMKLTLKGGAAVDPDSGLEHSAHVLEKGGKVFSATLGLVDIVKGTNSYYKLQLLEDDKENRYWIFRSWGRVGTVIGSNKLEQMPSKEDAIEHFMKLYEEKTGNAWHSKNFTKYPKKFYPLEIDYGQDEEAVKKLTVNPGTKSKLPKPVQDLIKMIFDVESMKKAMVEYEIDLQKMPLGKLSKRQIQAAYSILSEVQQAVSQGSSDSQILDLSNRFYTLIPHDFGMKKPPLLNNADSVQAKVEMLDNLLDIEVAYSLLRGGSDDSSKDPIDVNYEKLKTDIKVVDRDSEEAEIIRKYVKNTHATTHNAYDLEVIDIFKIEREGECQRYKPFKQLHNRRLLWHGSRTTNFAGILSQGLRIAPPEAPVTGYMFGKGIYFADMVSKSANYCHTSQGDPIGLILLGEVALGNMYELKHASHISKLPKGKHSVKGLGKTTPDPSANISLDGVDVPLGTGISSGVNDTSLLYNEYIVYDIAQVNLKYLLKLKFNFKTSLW

As to `CCc1cc2ncc(C(C)N3CC(Oc4ccc(C(=O)NC)nc4)C3)cc2[nH]c1=O` (racemic) [Compound 43, 5-((1-(1-(7-ethyl-6-oxo-5,6-dihydro-1,5-naphthyridin-3-yl)ethyl)azetidin-3-yl)oxy)-N-methylpicolinamide], the IC50 in data set [1] came out at 5.9 nM; in data set [2], 3.76 µM; in data set [3] (Homo sapiens, DLD-1, 168 h), 12.2 nM.

Take `CCc1nc2ccc([C@H](C)N3CC(Oc4ccc(C(=O)NC)nc4F)C3)cc2[nH]c1=O` (single isomer, unassigned) [Compound 56, (enantiomer 1 or 2)-5-((1-(1-(2-ethyl-3-oxo-3,4-dihydroquinoxalin-6-yl)ethyl)azetidin-3-yl)oxy)-6-fluoro-N-methylpicolinamide]: the IC50 in data set [1] was 11 nM. Moreover, in data set [4], the efflux ratio at 120 min, 5 μM turned out to be 3.01; the Papp A→B at 120 min, 5 μM was determined as 8.54 ×10⁻⁶ cm/s; the Papp B→A at 120 min, 5 μM was 25.8 ×10⁻⁶ cm/s. For the same compound, it took 10.9 nM to reach half-maximal inhibition in data set [3] (Homo sapiens, DLD-1, 168 h) (IC50).

Turning to `CNC(=O)c1ccc(O[C@@H]2CCN(Cc3cnc4cc(C5CC5)c(=O)[nH]c4c3)C2)cn1` (single isomer, unassigned) [Compound 60, (enantiomer 1 or 2)-5-((1-((7-cyclopropyl-6-oxo-5,6-dihydro-1,5-naphthyridin-3-yl)methyl)pyrrolidin-3-yl)oxy)-N-methylpicolinamide], the values for the IC50 in data set [1], in data set [2] and in data set [3] were 64.3 nM, more than 10 µM and more than 1000 nM, respectively.

`CNC(=O)c1ccc(O[C@@H]2CCN(Cc3cnc4cc(C5CC5)c(=O)[nH]c4c3)C2)cn1` (single isomer, unassigned) [Compound 61, (enantiomer 1 or 2)-5-((1-((7-cyclopropyl-6-oxo-5,6-dihydro-1,5-naphthyridin-3-yl)methyl)pyrrolidin-3-yl)oxy)-N-methylpicolinamide]: the IC50 was 6.62 nM in data set [1], more than 10 µM in data set [2] and 40.7 nM in data set [3].

Turning to `CCc1cc2ncc(CN3CC(N(C)c4ccc(C(=O)NC)nc4)C3)cc2[nH]c1=O` [Compound 3, 5-((1-((7-ethyl-6-oxo-5,6-dihydro-1,5-naphthyridin-3-yl)methyl)azetidin-3-yl)(methyl)amino)-N-methylpicolinamide], the IC50 in data set [1] is 4.3 nM; in data set [2], more than 10 µM; in data set [3] (Homo sapiens, DLD-1, 168 h), 221 nM.

Regarding `CCc1cc2ncc(CN3CCC(Cc4ccc(C(=O)NC)nc4)C3)cc2[nH]c1=O` (centres unmarked) [Compound 7, 5-((1-((7-ethyl-6-oxo-5,6-dihydro-1,5-naphthyridin-3-yl)methyl)pyrrolidin-3-yl)methyl)-N-methylpicolinamide], the IC50 amounted to 7.8 nM in data set [1]; 7.04 µM in data set [2]; 207 nM in data set [3] (Homo sapiens, DLD-1, 168 h).

Turning to `CNC(=O)c1ccc(OC2CCN(Cc3cnc4cc(C5CC5)c(=O)[nH]c4c3)C2)cn1` (centres unmarked) [Compound 14, 5-((1-((7-cyclopropyl-6-oxo-5,6-dihydro-1,5-naphthyridin-3-yl)methyl)pyrrolidin-3-yl)oxy)-N-methylpicolinamide], the IC50 is 6.6 nM in data set [1]; more than 10 µM in data set [2]; 48.6 nM in data set [3] (Homo sapiens, DLD-1, 168 h).

In the case of `CCc1cc2ncc(CN3CCC(Oc4ccc(C(=O)NC)nc4)CC3)cc2[nH]c1=O` [Compound 15, 5-((1-((7-ethyl-6-oxo-5,6-dihydro-1,5-naphthyridin-3-yl)methyl)piperidin-4-yl)oxy)-N-methylpicolinamide], the IC50 was 18 nM in data set [1]; more than 10 µM in data set [2]; 195 nM in data set [3] (Homo sapiens, DLD-1, 168 h).

On to `CCc1cc2ncc(C(C)N3CC(Oc4ccc(C(=O)NC)nc4C)C3)cc2[nH]c1=O` (centres unmarked) [Compound 19, 5-((1-(1-(7-ethyl-6-oxo-5,6-dihydro-1,5-naphthyridin-3-yl)ethyl)azetidin-3-yl)oxy)-N,6-dimethylpicolinamide], for which the half-maximal inhibitory concentration (IC50) is 6.1 nM in data set [1]; more than 10 µM in data set [2]; more than 1000 nM in data set [3] (Homo sapiens, DLD-1, 168 h).

`CCc1cc2ncc(C(C)N3CC(Oc4ccc(C(=O)NC)nc4F)C3)cc2[nH]c1=O` (centres unmarked) [Compound 21, 5-((1-(1-(7-ethyl-6-oxo-5,6-dihydro-1,5-naphthyridin-3-yl)ethyl)azetidin-3-yl)oxy)-6-fluoro-N-methylpicolinamide]: the IC50 in data set [1] was 3.5 nM; in data set [2], 4.81 µM; in data set [3] (Homo sapiens, DLD-1, 168 h) it was 17.2 nM.

Take `CCc1cc2ncc(CN3C[C@H](Oc4ccc(C(=O)NC)nc4)[C@@H](F)C3)cc2[nH]c1=O` [Compound 24, 5-(((3S,4S)-1-((7-ethyl-6-oxo-5,6-dihydro-1,5-naphthyridin-3-yl)methyl)-4-fluoropyrrolidin-3-yl)oxy)-N-methylpicolinamide]: the IC50 in data set [1] was 7.3 nM; in data set [2], more than 10 µM; in data set [3] (Homo sapiens, DLD-1, 168 h), 542 nM.

Turning to `CCc1cc2ncc(CN3CC[C@@H](Oc4ccc(C(=O)NC)nc4F)C3)cc2[nH]c1=O` [Compound 29, (R)-5-((1-((7-ethyl-6-oxo-5,6-dihydro-1,5-naphthyridin-3-yl)methyl)pyrrolidin-3-yl)oxy)-6-fluoro-N-methylpicolinamide], the half-maximal inhibitory concentration (IC50) is 9.6 nM in data set [1]; more than 10 µM in data set [2]; 7.9 nM in data set [3] (Homo sapiens, DLD-1, 168 h).

For `CCc1cc2ncc(CN3CC[C@@H](Oc4ccc(C(=O)NC)nc4C)C3)cc2[nH]c1=O` [Compound 30, (R)-5-((1-((7-ethyl-6-oxo-5,6-dihydro-1,5-naphthyridin-3-yl)methyl)pyrrolidin-3-yl)oxy)-N,6-dimethylpicolinamide], the IC50 in data set [1] is 4.4 nM; in data set [2], more than 10 µM; in data set [3] (Homo sapiens, DLD-1, 168 h), 256 nM.

As to `CCc1cc2ncc(CN3CC4CCN(c5ccc(C(=O)NC)nc5)C4C3)cc2[nH]c1=O` (centres unmarked) [Compound 42, 5-(5-((7-ethyl-6-oxo-5,6-dihydro-1,5-naphthyridin-3-yl)methyl)hexahydropyrrolo[3,4-b]pyrrol-1(2H)-yl)-N-methylpicolinamide], in data set [4], the efflux ratio at 120 min, 5 μM stood at 7.71; the Papp A→B at 120 min, 5 μM came to 4.57 ×10⁻⁶ cm/s; the Papp B→A at 120 min, 5 μM was 35.3 ×10⁻⁶ cm/s. This compound gave an IC50 in data set [3] (Homo sapiens, DLD-1, 168 h) of more than 1000 nM.

On to `CCc1cc2ncc(CN3CC(Oc4ccc(C(=O)NC)nc4C)C3)cc2[nH]c1=O` [Compound 44, 5-((1-((7-ethyl-6-oxo-5,6-dihydro-1,5-naphthyridin-3-yl)methyl)azetidin-3-yl)oxy)-N,6-dimethylpicolinamide], for which the 50% inhibitory concentration (IC50) in data set [1] is 4.4 nM; in data set [2], more than 10 µM; in data set [3] (Homo sapiens, DLD-1, 168 h) it was more than 1000 nM.

As for `CCc1nc2ccc(C(C)N3CC(Oc4ccc(-n5ccnn5)nc4)C3)cc2[nH]c1=O` (centres unmarked) [Compound 54, 7-(1-(3-((6-(1H-1,2,3-triazol-1-yl)pyridin-3-yl)oxy)azetidin-1-yl)ethyl)-3-ethylquinoxalin-2(1H)-one], the IC50 in data set [1] stood at 2.12 nM; in data set [3] (Homo sapiens, DLD-1, 168 h), 38.5 nM.

`CCc1nc2ccc(C(C)N3CC(Oc4ccc(C(=O)NC)nc4F)C3)c(F)c2[nH]c1=O` (centres unmarked) [Compound 55, 5-((1-(1-(2-ethyl-5-fluoro-3-oxo-3,4-dihydroquinoxalin-6-yl)ethyl)azetidin-3-yl)oxy)-6-fluoro-N-methylpicolinamide]: in data set [1], the IC50 worked out at 28.1 nM. Moreover, in data set [4], the efflux ratio at 120 min, 5 μM worked out at 1.5; the Papp A→B at 120 min, 5 μM stood at 9.92 ×10⁻⁶ cm/s; the Papp B→A at 120 min, 5 μM is 14.8 ×10⁻⁶ cm/s. In data set [3] (Homo sapiens, DLD-1, 168 h), this compound showed an IC50 of 554 nM.

Regarding `CCc1cc2cnc(CN3CC[C@@H](Oc4ccc(C(=O)NC)nc4F)C3)cc2[nH]c1=O` [Compound 62, (R)-5-((1-((3-ethyl-2-oxo-1,2-dihydro-1,6-naphthyridin-7-yl)methyl)pyrrolidin-3-yl)oxy)-6-fluoro-N-methylpicolinamide], in data set [4], the efflux ratio at 120 min, 5 μM turned out to be 12.7; the Papp A→B at 120 min, 5 μM was found to be 2.46 ×10⁻⁶ cm/s; the Papp B→A at 120 min, 5 μM amounted to 31.2 ×10⁻⁶ cm/s. In data set [3] (Homo sapiens, DLD-1, 168 h), this compound registered an IC50 of 1.6 nM.

The term IC50 denotes the point on the concentration scale where inhibition reaches its midpoint. By Papp A→B is commonly meant how fast a substance crosses the layer from the apical side. The Papp B→A is how fast a substance crosses the layer from the basolateral side.
